Source: US10392383B2, “3-(1H-benzo[d]imidazol-2-yl)-1H-pyrazolo[4,3-b]pyridines and therapeutic uses thereof” (Samumed, LLC, priority 2015, dated 2019)

Legend:
[1] = system: primary human fibroblasts derived from IPF patients (LL29 cells) treated with TGF-β1; experiment: Inhibition of the fibrotic process: αSMA staining in TGF-β1-treated LL29 fibroblasts; format: cell-based; details: Fibroblast; for EC50: 96 h, LL29 fibroblasts treated with TGF-β1 (20 ng/mL), 4 days, Table 4; for inhibition at 10 µM: LL29 fibroblasts treated with TGF-β1, Table 4, read-out: percent inhibition at 10 μM (given in parentheses for EC50 >10 μM)
Source text: Representative compounds were screened using primary human fibroblasts (derived from IPF patients) treated with TGF-β1 to determine their ability to inhibit the fibrotic process.
Human Fibroblast Cell Culture: Primary human fibroblasts derived from IPF patients (LL29 cells) [^1Xiaoqiu Liu, et. al., “Fibrotic Lung Fibroblasts Show Blunted Inhibition by cAMP Due to Deficient cAMP Response Element-Binding Protein Phosphorylation”, Journal of Pharmacology and Experimental Therapeutics (2005), 315(2), 678-687; ^2Watts, K. L., et. al., “RhoA signaling modulates cyclin D1 expression in human lung fibroblasts; implications for idiopathic pulmonary fibrosis”, Respiratory Research (2006), 7(1), 88] were obtained from American Type Culture Collection (ATCC) and expanded in F12 medium supplemented with 15% Fetal Bovine Serum and Penicillin/Streptomycin.
Compound Screening: Each compound was dissolved in DMSO as a 10 mM stock and used to prepare compound source plates. Serial dilution (1:2, 11-point dose-response curves from 10 μM to […]) and compound transfer was performed using the ECHO 550 (Labcyte, Sunnyvale, Calif.) into 384-well clear bottom assay plates (Greiner Bio-One) with appropriate DMSO backfill for a final DMSO concentration of 0.1%. LL29 cells are plated at 1,500 cells/well in 80 μL/well F12 medium supplemented with 1% Fetal Bovine Serum. One hour after addition of the cells, TGF-β1 (Peprotech; 20 ng/mL) was added to the plates to induce fibrosis (ref. 1 and 2 above). Wells treated with TGF-β1 and containing DMSO were used as controls. Cells were incubated at 37° C. and 5% CO2 for 4 days. Following incubation for 4 days, SYTOX green nucleic acid stain (Life Technologies [Thermo Fisher Scientific]) was added to the wells at a final concentration of 1 μM and incubated at room temperature for 30 min. Cells were then fixed using 4% formaldehyde (Electron Microscopy Sciences), washed 3 times with PBS followed by blocking and permeabilization using 3% Bovine Serum Albumin (BSA; Sigma) and 0.3% Triton X-100 (Sigma) in PBS. Cells were then stained with antibody specific to α-smooth muscle actin (αSMA; Abcam) (ref. 1 and 2 above) in 3% Bovine Serum Albumin (BSA; Sigma) and 0.3% Triton X-100 (Sigma) in PBS, and incubated overnight at 4° C. Cells were then washed 3 times with PBS, followed by incubation with Alexa Flor-647 conjugated secondary antibody (Life Technologies [Thermo Fisher Scientific]) and DAPI at room temperature for 1 hour. Cells were then washed 3 times with PBS and plates were sealed for imaging. αSMA staining was imaged by excitation at 630 nm and emission at 665 nm and quantified using the Compartmental Analysis program on the CellInsight CX5 (Thermo Scientific). Dead or apoptotic cells were excluded from analysis based on positive SYTOX green staining. % of total cells positive for αSMA were counted in each well and normalized to the average of 11 wells treated with TGF-β1 on the same plate using Dotmatics' Studies Software. The normalized averages (fold change over untreated) of 3 replicate wells for each compound concentration were used to create dose-responses curves and EC50 values were calculated using non-linear regression curve fit in the Dotmatics' Studies Software. For EC50 of >10 μM, the percent inhibition at 10 μM is provided.

[2] = system: SW480 colon cancer cells; experiment: Cell viability assay (CellTiter-Blue) in SW480 cells; format: cell-based; details: Homo sapiens, 96 h, four days; for EC50: CellTiter-Blue, 10 μM to 0.0045 μM; for inhibition at 10 µM: read-out: percent inhibition at 10 μM (given for EC50 of >10 μM)
Protocol: Representative compounds were screened using the following assay procedure to assess the effect on cell viability as described below.
Each compound was dissolved in DMSO as a 10 mM stock and used to prepare compound source plates. Serial dilution (1:3, 8-point dose-response curves from 10 μM to 0.0045 μM) and compound transfer was performed using the ECHO 550 (Labcyte, Sunnyvale, Calif.) into 96-well clear bottom, black-walled plates (Corning-Costar).
Approximately 2×10^3 SW480 colon cancer cells were seeded into each well and allowed to incubate in the presence or absence of compound for four days at 37° C./5% CO2. Eight replicates of DMSO-treated cells served as controls and cells treated with compound were performed in duplicate.
After incubation, 20 μL of CellTiter-Blue (Promega) was added to each well allowed to incubate for approximately 3 hours. This reagent was a buffered solution which contains resazurin, metabolically active cells were able to reduce rezarurin (blue) into resorufin (pink) which was highly fluorescent. This measured fluorescence was used as a readout for cell viability.
After incubation, the plates were read at Ex 560 nm Em 590 nm (Cytation 3, BioTek). Dose-response curves were generated and EC50 concentration values were calculated using non-linear regression curve fit in the GraphPad Prism (San Diego, Calif.) or Dotmatics' Studies Software (Bishops Stortford, UK). For EC50 of >10 μM, the percent inhibition at 10 μM is provided.

SMILES	EC50 [2] [nM]	EC50 [1] [nM]	inhibition at 10 µM [2] [%]	inhibition at 10 µM [1] [%]
Fc1cccc(-c2cccc3[nH]c(-c4n[nH]c5ccc(C6=CCNCC6)nc45)nc23)c1 [Compound 506, 3-(4-(3-Fluorophenyl)-1H-benzo[d]imidazol-2-yl)-5-(1,2,3,6-tetrahydropyridin-4-yl)-1H-pyrazolo[4,3-b]pyridine]	4160	1600	–	–
Cc1ccc(-c2cccc3[nH]c(-c4n[nH]c5ccc(-c6cncc(OC7CCCCC7)c6)nc45)nc23)s1 [Compound 735, 5-(5-(Cyclohexyloxy)pyridin-3-yl)-3-(4-(5-methylthiophen-2-yl)-1H-benzo [d]imidazol-2-yl)-1H-pyrazolo[4,3-b]pyridine]	> 10000	1130	32.3	–
Fc1cccc(-c2cccc3[nH]c(-c4n[nH]c5ccc(-c6cnccn6)nc45)nc23)c1 [Compound 520, 3-(4-(3-Fluorophenyl)-1H-benzo[d]imidazol-2-yl)-5-(pyrazin-2-yl)-1H-pyrazolo[4,3-b]pyridine]	1790	4290	–	–
CN(C)CC(=O)Nc1cncc(-c2ccc3[nH]nc(-c4nc5c(-c6cccc(F)c6)cccc5[nH]4)c3n2)c1 [Compound 969, 2-(Dimethylamino)-N-(5-(3-(4-(3-fluorophenyl)-1H-benzo[d]imidazol-2-yl)-1H-pyrazolo[4,3-b]pyridin-5-yl)pyridin-3-yl)acetamide]	> 10000	2070	25.3	–
O=C(Cc1ccccc1)Nc1cncc(-c2ccc3[nH]nc(-c4nc5c(-c6ccncc6)cccc5[nH]4)c3n2)c1 [Compound 122, 2-Phenyl-N-(5-(3-(4-(pyridin-4-yl)-1H-benzo[d]imidazol-2-yl)-1H-pyrazolo [4,3-b]pyridin-5-yl)pyridin-3-yl)acetamide]	1450	4970	–	–
C1=C(c2ccc3[nH]nc(-c4nc5c(-c6ccc7c(c6)OCO7)cccc5[nH]4)c3n2)CCNC1 [Compound 1109, 3-(4-(Benzo[d][1,3]dioxol-5-yl)-1H-benzo[d]imidazol-2-yl)-5-(1,2,3,6-tetrahydropyridin-4-yl)-1H-pyrazolo[4,3-b]pyridine]	1240	1590	–	–
Cn1cc(-c2ccc3[nH]nc(-c4nc5c(-c6cc(F)cc(CNS(C)(=O)=O)c6)cccc5[nH]4)c3n2)cn1 [Compound 764, N-(3-Fluoro-5-(2-(5-(1-methyl-1H-pyrazol-4-yl)-1H-pyrazolo[4,3-b]pyridin-3-yl)-1H-benzo[d]imidazol-4-yl)benzyl)methanesulfonamide]	1410	1990	–	–
Cn1cc(-c2ccc3[nH]nc(-c4nc5c(-c6cccs6)cccc5[nH]4)c3n2)cn1 [Compound 700, 5-(1-Methyl-1H-pyrazol-4-yl)-3-(4-(thiophen-2-yl)-1H-benzo[d]imidazol-2-yl)-1H-pyrazolo[4,3-b]pyridine]	> 10000	391	27.3	–
c1cncc(-c2ccc3[nH]nc(-c4nc5c(-c6cccnc6)cccc5[nH]4)c3n2)c1 [Compound 88, 5-(Pyridin-3-yl)-3-(4-(pyridin-3-yl)-1H-benzo[d]imidazol-2-yl)-1H-pyrazolo [4,3-b]pyridine]	6690	> 10000	–	0

Now from value to compound, other results behind:

EC50 [2] [nM]	SMILES	EC50 [1] [nM]	inhibition at 10 µM [2] [%]	inhibition at 10 µM [1] [%]
953	NC1CN(c2cncc(-c3ccc4[nH]nc(-c5nc6c(-c7ccc(Cl)s7)cccc6[nH]5)c4n3)n2)C1 [Compound 1068, 1-(6-(3-(4-(5-Chlorothiophen-2-yl)-1H-benzo[d]imidazol-2-yl)-1H-pyrazolo [4,3-b]pyridin-5-yl)pyrazin-2-yl)azetidin-3-amine]	1710	–	–
> 10000	CCCC(=O)Nc1cncc(-c2ccc3[nH]nc(-c4nc5c(-c6ccncc6)cccc5[nH]4)c3n2)c1 [Compound 129, N-(5-(3-(4-(Pyridin-4-yl)-1H-benzo[d]imidazol-2-yl)-1H-pyrazolo[4,3-b]pyridin-5-yl)pyridin-3-yl)butyramide]	> 10000	0	0
> 10000	O=C(Nc1cncc(-c2ccc3[nH]nc(-c4nc5c(-c6ccncc6)cccc5[nH]4)c3n2)c1)C1CCCCC1 [Compound 135, N-(5-(3-(4-(pyridin-4-yl)-1H-benzo[d]imidazol-2-yl)-1H-pyrazolo[4,3-b]pyridin-5-yl)pyridin-3-yl)cyclohexanecarboxamide]	> 10000	1	0
> 10000	CCCCC(=O)Nc1cncc(-c2ccc3[nH]nc(-c4nc5c(-c6ccccn6)cccc5[nH]4)c3n2)c1 [Compound 159, N-(5-(3-(4-(Pyridin-2-yl)-1H-benzo[d]imidazol-2-yl)-1H-pyrazolo[4,3-b]pyridin-5-yl)pyridin-3-yl)pentanamide]	948	11	–
722	CN(C)CCNc1cc(F)cc(-c2cccc3[nH]c(-c4n[nH]c5ccc(-c6cncc(OCc7ccccc7)c6)nc45)nc23)c1 [Compound 790, N^1-(3-(2-(5-(5-(Benzyloxy)pyridin-3-yl)-1H-pyrazolo[4,3-b]pyridin-3-yl)-1H-benzo[d]imidazol-4-yl)-5-fluorophenyl)-N^2,N^2-dimethylethane-1,2-diamine]	798	–	–
> 10000	COc1cccc(-c2cccc3[nH]c(-c4n[nH]c5ccc(-c6cn[nH]c6)nc45)nc23)c1 [Compound 1020, 3-(4-(3-Methoxyphenyl)-1H-benzo[d]imidazol-2-yl)-5-(1H-pyrazol-4-yl)-1H-pyrazolo[4,3-b]pyridine]	372	12.6	–
584	Clc1ccc(-c2cccc3[nH]c(-c4n[nH]c5ccc(-c6cncc(CN7CCCC7)c6)nc45)nc23)s1 [Compound 1049, 3-(4-(5-Chlorothiophen-2-yl)-1H-benzo[d]imidazol-2-yl)-5-(5-(pyrrolidin-1-ylmethyl)pyridin-3-yl)-1H-pyrazolo[4,3-b]pyridine]	733	–	–
> 10000	Cc1cn(-c2cccc3[nH]c(-c4n[nH]c5ccc(-c6cncc(OCCN(C)C)c6)nc45)nc23)cn1 [Compound 627, N,N-Dimethyl-2-((5-(3-(4-(4-methyl-1H-imidazol-1-yl)-1H-benzo[d]imidazol-2-yl)-1H-pyrazolo[4,3-b]pyridin-5-yl)pyridin-3-yl)oxy)ethan-1-amine]	6760	14.1	–
4230	CN(C)CCNc1cc(F)cc(-c2cccc3[nH]c(-c4n[nH]c5ccc(-c6cnccn6)nc45)nc23)c1 [Compound 792, N^1-(3-Fluoro-5-(2-(5-(pyrazin-2-yl)-1H-pyrazolo[4,3-b]pyridin-3-yl)-1H-benzo[d]imidazol-4-yl)phenyl)-N^2,N^2-dimethylethane-1,2-diamine]	1900	–	–
